Legend:
[1] = tested on: adult brown dog tick (Rhipicephalus sanguineus); test: Assay 3: adult brown dog tick infestations on dogs; type: in vivo, Rhipicephalus sanguineus on beagle dogs; conditions: for % Efficacy (GM) / Geometric Mean Group Live Parasite Counts: topical spot-on 30 mg/kg
Procedure: (§1) The therapeutic (knockdown) and residual efficacy of the Example 1 compound, administered topically at a point dose of 30 mg/kg bodyweight, is evaluated against adult brown dog tick (Rhipicephalus sanguineus) and cat flea (Ctenocephalides felis) infestations on dogs. Based on pre-treatment tick retention rates, eight (8) beagle dogs are allocated to one of two treatment groups (n=4 per group): Untreated control group, and Example 1 compound-treated group. Dogs are infested with approximately 50 unfed, adult ticks one day prior to treatment (approximately 50% male and 50% female ticks). On Day 0, dogs are treated with Example 1 compound (50 mg/ml, dissolved in a vehicle solution of propylene carbonate, benzyl alcohol, and isopropyl myristate), applied via topical spot-on to achieve a point dose of 30 mg/kg. On Day 3 (approximately 72 hours after treatment), ticks are counted and removed from all dogs. To evaluate residual activity, dogs are re-infested with ticks on an approximate weekly basis for at least two weeks and up to 4 weeks, with tick counts (and removal) conducted 48 hours after each infestation. Dogs are infested with approximately 100 unfed, adult fleas at weeks 2 and 3 for both groups, concurrently with tick infestation.
(§2) The total number of live parasites present on each dog is determined for each interval, and this number is transformed using the natural logarithm transformation plus one (Ln count+1); addition of one to each count served to adjust for counts that are zero. Geometric mean (GM) group tick and flea counts are obtained via back-transformation of group mean transformed counts and subtracting one. The negative control group is used for comparison to treated groups for the calculation of percent efficacy (% reduction in live parasite counts). GM percent efficacy of treatments is calculated using the following formula: […]

[2] = tested on: cat flea (Ctenocephalides felis); test: Assay 3: cat flea infestations on dogs; type: in vivo, Ctenocephalides felis on beagle dogs; conditions: for % Efficacy (GM) / Geometric Mean Group Live Parasite Counts: topical spot-on 30 mg/kg
Procedure: as §1, §2

[3] = tested on: Rhipicephalus sanguineus (Brown dog tick); test: Assay 4: adult brown dog tick infestations on dogs, descending doses; type: in vivo, Rhipicephalus sanguineus on beagle dogs
Procedure: as §2
(§3) The therapeutic (knockdown) and residual efficacy of the Example 1 compound, administered via topical spot-on at descending point doses of 30, 20 and 10 mg/kg, is evaluated against adult tick (Dermacentor variabilis (American dog tick) and Rhipicephalus sanguineus (Brown dog tick)) infestations on dogs. Twenty-four (24) beagle dogs are allocated to either an untreated, negative control group or one of three treated groups (n=6 dogs per group). Dogs are infested with approximately 50 unfed, adult R. sanguineus ticks on Days −1, 5, 12, 19 and 28; dogs are concurrently infested with D. variabilis ticks on Day 12 and Day 28. On Day 0, dogs are treated with the Example 1 compound (50 mg/ml of technical active dissolved in a vehicle solution of propylene carbonate, benzyl alcohol, and isopropyl myristate), applied via topical spot-on in a volume so as to achieve point doses of 30, 20 and 10 mg/kg. Tick counts and classification are conducted on Days 3, 7, 14, 21 and 30. GM percent efficacy of treatments against both tick species is calculated using the formula in Assay 3.

[4] = tested on: Dermacentor variabilis (American dog tick); test: Assay 4: adult American dog tick infestations on dogs, descending doses; type: in vivo, Dermacentor variabilis on beagle dogs
Procedure: as §2, §3

[5] = tested on: adult brown tick (Rhipicephalus sanguineus); test: Assay 5: adult brown tick infestations on dogs; type: in vivo, Rhipicephalus sanguineus on beagle dogs; conditions: 10 mg/kg topical spot-on
Procedure: as §2
The therapeutic (knockdown) and residual efficacy of the Example 1-4 compounds, when administered via topical spot-on at 10 mg/kg, is evaluated against adult brown tick (Rhipicephalus sanguine us) infestations on dogs. Twenty (20) beagle dogs are allocated to either an untreated, negative control group or one of four treated groups (n=4 dogs per group). Dogs are infested with approximately 50 unfed, adult R. sanguineus ticks on Days −1, 5, 12, 19 and 28. On Day 0, dogs are treated with Example 1-4 compound formulations (each, 50 mg/ml of technical active dissolved in a vehicle solution of propylene carbonate, benzyl alcohol, and isopropyl myristate), applied via topical spot-on in a volume so as to achieve a point dose of 10 mg/kg. Tick counts and classification are conducted on Days 2, 7, 14, 21 and 30. GM percent efficacy of treatments against ticks is calculated using the formula in Assay 3.

[6] = Assay 3: tolerability in dogs; type: in vivo, beagle dogs; conditions: topical spot-on 30 mg/kg
[7] = Assay 4: tolerability in dogs; type: in vivo, beagle dogs; conditions: topical spot-on 30, 20 and 10 mg/kg
[8] = topical 30 mg/kg, through week 4
[9] = 10 mg/kg topical spot-on, Day 3, Rs
[10] = 10 mg/kg topical spot-on, Day 7, Rs
[11] = 10 mg/kg topical spot-on, Day 14, Rs
[12] = 10 mg/kg topical spot-on, Day 21, Rs
[13] = 10 mg/kg topical spot-on, Day 30, Rs
[14] = 20 mg/kg topical spot-on, Day 3, Rs
[15] = 20 mg/kg topical spot-on, Day 7, Rs
[16] = 20 mg/kg topical spot-on, Day 14, Rs
[17] = 20 mg/kg topical spot-on, Day 21, Rs
[18] = 20 mg/kg topical spot-on, Day 30, Rs
[19] = 30 mg/kg topical spot-on, Day 3, Rs
[20] = 30 mg/kg topical spot-on, Day 7, Rs
[21] = 30 mg/kg topical spot-on, Day 14, Rs
[22] = 30 mg/kg topical spot-on, Day 21, Rs
[23] = 30 mg/kg topical spot-on, Day 30, Rs
[24] = 10 mg/kg topical spot-on, Day 14, Dv
[25] = 10 mg/kg topical spot-on, Day 30, Dv
[26] = 20 mg/kg topical spot-on, Day 14, Dv
[27] = 20 mg/kg topical spot-on, Day 30, Dv
[28] = 30 mg/kg topical spot-on, Day 14, Dv
[29] = 30 mg/kg topical spot-on, Day 30, Dv

CC[C@H]1CCC[C@H](NC(=O)c2ccco2)[C@@H](C)C(=O)C2=C[C@@H]3[C@@H](C=C[C@@H]4C[C@@H](O[C@@H]5O[C@@H](C)[C@H](OC)C(OC)[C@H]5OC)C[C@@H]34)[C@@H]2CC(=O)O1 (stereo partly drawn) [Example 1, N-((2R,3aS,5aR,5bS,9S,13S,14R,16aS,16bR)-9-ethyl-14-methyl-7,15-dioxo-2-(((2R,3R,5S,6S)-3,4,5-trimethoxy-6-methyltetrahydro-2H-pyran-2-yl)oxy)-2,3,3a,5a,5 b,6,7,9,10,11,12,13,14,15,16a,16b-hexadecahydro-1H-as-indaceno[3,2-d][1]oxacyclododecin-13-yl)furan-2-carboxamide]
residual efficacy against ticks [1, 8]: > 90% | % Efficacy (GM) ([1]; Day 3, Tick): (87.42) % | Geometric Mean Group Live Parasite Counts ([1]; Day 3, Tick): 3.95 | % Efficacy (GM) ([1]; Week 1, Tick): (99.44) % | Geometric Mean Group Live Parasite Counts ([1]; Week 1, Tick): 0.19 | % Efficacy (GM) ([1]; Week 2, Tick): (100) % | Geometric Mean Group Live Parasite Counts ([1]; Week 2, Tick): 0.00 | % Efficacy (GM) ([1]; Week 3, Tick): (100) % | Geometric Mean Group Live Parasite Counts ([1]; Week 3, Tick): 0.00 | % Efficacy (GM) ([1]; Week 4, Tick): (100) % | Geometric Mean Group Live Parasite Counts ([1]; Week 4, Tick): 0.00 | residual efficacy against fleas [2, 8]: > 90% | % Efficacy (GM) ([2]; Week 2, Flea): (91.73) % | Geometric Mean Group Live Parasite Counts ([2]; Week 2, Flea): 7.15 | % Efficacy (GM) ([2]; Week 3, Flea): (91.64) % | Geometric Mean Group Live Parasite Counts ([2]; Week 3, Flea): 7.21 | % Efficacy (GM) [3, 9]: (73.39) % | Geometric Mean Group Live Tick Counts [3, 9]: 4.92 | % Efficacy (GM) [3, 10]: (100) % | Geometric Mean Group Live Tick Counts [3, 10]: 0.00 | % Efficacy (GM) [3, 11]: (97.59) % | Geometric Mean Group Live Tick Counts [3, 11]: 0.70 | % Efficacy (GM) [3, 12]: (96.14) % | Geometric Mean Group Live Tick Counts [3, 12]: 0.70 | % Efficacy (GM) [3, 13]: (90.64) % | Geometric Mean Group Live Tick Counts [3, 13]: 1.18 | % Efficacy (GM) [3, 14]: (84.80) % | Geometric Mean Group Live Tick Counts [3, 14]: 2.81 | % Efficacy (GM) [3, 15]: (100) % | Geometric Mean Group Live Tick Counts [3, 15]: 0.00 | % Efficacy (GM) [3, 16]: (99.58) % | Geometric Mean Group Live Tick Counts [3, 16]: 0.12 | % Efficacy (GM) [3, 17]: (99.32) % | Geometric Mean Group Live Tick Counts [3, 17]: 0.12 | % Efficacy (GM) [3, 18]: (94.12) % | Geometric Mean Group Live Tick Counts [3, 18]: 0.74 | % Efficacy (GM) [3, 19]: (79.13) % | Geometric Mean Group Live Tick Counts [3, 19]: 3.86 | % Efficacy (GM) [3, 20]: (98.92) % | Geometric Mean Group Live Tick Counts [3, 20]: 0.12 | % Efficacy (GM) [3, 21]: (99.10) % | Geometric Mean Group Live Tick Counts [3, 21]: 0.26 | % Efficacy (GM) [3, 22]: (97.55) % | Geometric Mean Group Live Tick Counts [3, 22]: 0.44 | % Efficacy (GM) [3, 23]: (95.94) % | Geometric Mean Group Live Tick Counts [3, 23]: 0.51 | Therapeutic (knockdown) efficacy ([3]; Day 3, treatments 30, 20 and 10 mg/kg): 73-85% | Residual efficacy against R. sanguineus ([3]; through Day 21, all treatments (30, 20, 10 mg/kg)): > 95% | Residual efficacy against R. sanguineus ([3]; through Day 30, 30 mg/kg dose): > 95% | % Efficacy (GM) [4, 24]: (99.49) % | Geometric Mean Group Live Tick Counts [4, 24]: 0.12 | % Efficacy (GM) [4, 25]: (95.30) % | Geometric Mean Group Live Tick Counts [4, 25]: 1.60 | % Efficacy (GM) [4, 26]: (97.87) % | Geometric Mean Group Live Tick Counts [4, 26]: 0.51 | % Efficacy (GM) [4, 27]: (97.34) % | Geometric Mean Group Live Tick Counts [4, 27]: 0.91 | % Efficacy (GM) [4, 28]: (98.06) % | Geometric Mean Group Live Tick Counts [4, 28]: 0.47 | % Efficacy (GM) [4, 29]: (97.95) % | Geometric Mean Group Live Tick Counts [4, 29]: 0.70 | Residual efficacy against D. variabilis ticks ([4]; all doses, both Day 14 and Day 30 intervals): > 95% | GM percent efficacy ([5]; Day 2, R. sanguineus): (68.16) | Geometric Mean Group Live Tick Counts ([5]; Day 2, R. sanguineus): 10.03 | GM percent efficacy ([5]; Day 7, R. sanguineus): (100) | Geometric Mean Group Live Tick Counts ([5]; Day 7, R. sanguineus): 0.00 | GM percent efficacy ([5]; Day 14, R. sanguineus): (97.41) | Geometric Mean Group Live Tick Counts ([5]; Day 14, R. sanguineus): 0.57 | GM percent efficacy ([5]; Day 21, R. sanguineus): (95.27) | Geometric Mean Group Live Tick Counts ([5]; Day 21, R. sanguineus): 1.59 | GM percent efficacy ([5]; Day 30, R. sanguineus): (67.97) | Geometric Mean Group Live Tick Counts ([5]; Day 30, R. sanguineus): 8.40 | tolerability of treatment [6]: well tolerated | tolerability of treatment [7]: well tolerated

From patent US20160115189A1, “PARASITICIDAL COMPOUNDS, METHODS, AND FORMULATIONS” (ELI LILLY AND COMPANY, priority 2013, published 2016)
